As a reminder, the LD50 is the dose expected to kill half of the subjects tested. Read a low LD50 as a more toxic substance.

One data set is described as follows: in vivo. The settings on record: mouse, in vivo; mice, 95% confidence limits. How it is done: (§1) The LD50 was determined in mice, rats, and rabbits and the TI was calculated as LD50/HD50.
For another data set, the system named is mice. The data set can be described thus: in vivo. The settings on record: LD50/HD50. Here is the method: as §1
Another data set deals with rabbits. The data set can be described thus: Therapeutic index (LD50/HD50) in rabbits. Type of data set: in vivo, rabbit. How it is done:
as §1

A short description of data set [1]: In vitro metabolic half-life in rabbit whole blood. Type of data set: in vitro ADME. As to conditions: male, New Zealand White rabbit (n = 3), 37°C, read-out: Mean t1/2 Value. How it is done: (§2) Human whole blood stability experiments were conducted in whole blood from four human donors (male, 18–25 years). Single experiments were conducted with pooled blood from Sprague-Dawley rats (male, 8 weeks, n = 3), New Zealand White rabbits (male, 8–10 weeks, n = 3), Beagle dogs (male, 2–3 years, n = 3) and Cynomolgus monkeys (male, 3–4 years, n = 3). All the blood samples were provided by Xuzhou Medical College. A 1.35-ml aliquot of blood was warmed at 37°C for 5 min and hypnotic (from a 40 mM stock in DMSO solution) was added to a final concentration of 200 µM. After the specified incubation time, a 150-µl sample was removed and the metabolic reaction was quenched using 150-µl acetonitrile. Zero time-point samples were prepared by adding 150-µl acetonitrile (using a 4 mM stock in DMSO) to 150-µl blood before addition of the hypnotic. The quenched samples were centrifuged, and the supernatant was separated and stored at −20°C until analyzed. Hypnotic concentrations in thawed samples were determined by high-performance liquid chromatography using a 3-µm phenyl 4.6×50-mm C-A-25, ACE column with the UV detector set at 240 nm. […] The lower limit of quantitation of this assay is 3 µM and the accuracy within 15% at 10 µM. The metabolic half-lives were quantified from the incubation time-dependent change in drug concentration.

A short description of data set [2]: In vitro metabolic half-life in human whole blood. Type of data set: in vitro ADME. The settings on record: male, Human (n = 4), 37°C, read-out: Mean t1/2 Value. Here is the method:
as §2

Molecule `CCOc1cc(CC(=O)OCC(F)(F)F)ccc1OCC(=O)N(CC)CC` [Compound 5j, 2,2,2-trifluoroethyl 2-(4-(2-(diethylamino)-2-oxoethoxy)-3-ethoxyphenyl)acetate] registered an LD50 in “in vivo” of 192 mg/kg. The TI in the data set with mice is reported as 7.8; in the data set on rabbits, 21.2. Further, the half-life at 200 µM in data set [1] was 11.6 ± 1.6 min; in data set [2] it was 25.5 ± 5.6 min.

The record behind these values is PMC4010497, “Synthesis and Evaluation of Fluorine-Substituted Phenyl Acetate Derivatives as Ultra-Short Recovery Sedative/Hypnotic Agents” (PLoS ONE, 2014).
